Experimental data from paper PMC5449183, “Helical jackknives control the gates of the double-pore K^+ uptake system KtrAB” (eLife, 2017).

What was measured:
[1] = target: T1, KtrA (RCK subunit of the KtrAB complex) (Vibrio alginolyticus, UniProt O87952); experiment: ITC on detergent-solubilized KtrAB; […] Å cryo-EM map in the presence of ADP (EMD-3450); pulsed EPR; type: binding; parameters: full-length KtrAB, His10-KtrAB, detergent-solubilized complex (octameric KtrA ring); with KtrB
[2] = target: KtrB from Vibrio alginolyticus (untagged, of the His10-KtrAB complex) (Vibrio alginolyticus) (UniProt O87953); experiment: cryo-EM structure; His10-KtrAB 5 mg/ml, detergent-solubilised (1.5 mM Cymal-6), 600 uM ADP, 70 mM NaCl, 30 mM KCl, 20 mM Tris-HCl pH 8.0; 20,500 particles, D2 symmetry, 6.6 A; model by flexible fitting of a homology model
[3] = target: T1, KtrA (RCK subunit of the KtrAB complex); experiment: biochemical
[4] = target: the molecule itself; experiment: cryo-EM structure; His10-KtrAB 5 mg/ml, detergent-solubilised (1.5 mM Cymal-6), 600 uM ADP, 70 mM NaCl, 30 mM KCl, 20 mM Tris-HCl pH 8.0; 20,500 particles, D2 symmetry, 6.6 A; model by flexible fitting of a homology model

T1 sequence (O87953 whole entry, one chain of several, further chain): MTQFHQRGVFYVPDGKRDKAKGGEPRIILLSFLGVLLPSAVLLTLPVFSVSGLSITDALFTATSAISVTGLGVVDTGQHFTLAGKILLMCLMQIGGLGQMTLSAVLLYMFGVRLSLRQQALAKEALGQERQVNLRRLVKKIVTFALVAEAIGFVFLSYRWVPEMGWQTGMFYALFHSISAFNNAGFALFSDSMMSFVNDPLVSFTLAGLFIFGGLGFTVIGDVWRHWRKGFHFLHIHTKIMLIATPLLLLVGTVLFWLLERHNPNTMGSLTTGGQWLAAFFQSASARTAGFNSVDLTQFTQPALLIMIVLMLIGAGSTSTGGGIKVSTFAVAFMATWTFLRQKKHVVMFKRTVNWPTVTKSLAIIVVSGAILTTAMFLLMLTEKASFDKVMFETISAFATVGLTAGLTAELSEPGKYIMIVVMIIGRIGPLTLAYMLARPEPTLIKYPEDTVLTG

## Nc1ncnc2c1ncn2[C@@H]1O[C@H](COP(=O)(O)OP(=O)(O)O)[C@@H](O)[C@H]1O [ADP]
[1]
  Kd: 3 µM

## KtrB from Vibrio alginolyticus (untagged, of the His10-KtrAB complex) (from UniProt O87953 1-455) (natural protein)
[2]
  stoichiometry N: 2

## Nc1ncnc2c1ncn2[C@@H]1O[C@H](COP(=O)(O)OP(=O)(O)OP(=O)(O)O)[C@@H](O)[C@H]1O [ATP]
[3]
  Kd: 2 µM

B1: KtrA from Vibrio alginolyticus (His10-KtrA of the His10-KtrAB complex) (natural protein, UniProt O87952 1-220, looked up)
chain: MKTGDKQFAVIGLGRFGLAVCKELQDSGSQVLAVDINEDRVKEAAGFVSQAIVANCTHEETVAELKLDDYDMVMIAIGADVNASILATLIAKEAGVKSVWVKANDRFQARVLQKIGADHIIMPERDMGIRVARKMLDKRVLEFHPLGSGLAMTEFVVGSRLMGKTLSDLALCKVEGVQVLGYKRGPEIIKAPDMSTTLEIGDLIIVVGPQDKLANKLKSL
notes: KtrA, cytoplasmic RCK subunit of the K+ uptake system KtrAB, Vibrio alginolyticus; gene amplified from genomic DNA; Forms an octameric ring (eight chains) in the complex KtrB2A8B2; The N-terminal end of the tag is read from the label His10-KtrAB; ADP (600 uM) was present in the cryo-EM sample; also called VaKtrA; RCK subunit; source: E. coli LB2003, co-expressed with KtrB from pBAD18 …
[4]
  stoichiometry N: 8
